The target in one assay is T1, HiBit-BRM fusion protein (Homo sapiens, UniProt P51531).
T1 construct: expressed in transfected cells
The assay can be described thus: HiBiT-BRM cell-based degradation assay (Nano-Glo HiBiT Lytic Detection, 24 h). The note with it: HeLa cells expressing HiBiT-BRM; for DC50: read-out: BRM HiBit Degradation IC50; for BRM HiBit Degradation Maximum measured: top dose 30 μM. In short, it runs like this:
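Luminescence from reconstituted NanoBiT luciferase in lysed HeLa HiBiT-BRM cells served as the measure of remaining BRM after 24 h treatment. Compounds were tested from 30 μM final downward in 3-fold steps. DMSO and 2 μM of a standard BRM/BRG1 degrader defined the scale limits.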
On the technique in general: With HiBiT, luminescence reflects the tagged protein that the partner subunit can reach.

The target of assay [1] is T2, HiBit-BRG1 fusion protein (Homo sapiens, UniProt P51532).
T2 construct: expressed in transfected cells
T2 sequence (P51532 whole entry, the tested form may be a part): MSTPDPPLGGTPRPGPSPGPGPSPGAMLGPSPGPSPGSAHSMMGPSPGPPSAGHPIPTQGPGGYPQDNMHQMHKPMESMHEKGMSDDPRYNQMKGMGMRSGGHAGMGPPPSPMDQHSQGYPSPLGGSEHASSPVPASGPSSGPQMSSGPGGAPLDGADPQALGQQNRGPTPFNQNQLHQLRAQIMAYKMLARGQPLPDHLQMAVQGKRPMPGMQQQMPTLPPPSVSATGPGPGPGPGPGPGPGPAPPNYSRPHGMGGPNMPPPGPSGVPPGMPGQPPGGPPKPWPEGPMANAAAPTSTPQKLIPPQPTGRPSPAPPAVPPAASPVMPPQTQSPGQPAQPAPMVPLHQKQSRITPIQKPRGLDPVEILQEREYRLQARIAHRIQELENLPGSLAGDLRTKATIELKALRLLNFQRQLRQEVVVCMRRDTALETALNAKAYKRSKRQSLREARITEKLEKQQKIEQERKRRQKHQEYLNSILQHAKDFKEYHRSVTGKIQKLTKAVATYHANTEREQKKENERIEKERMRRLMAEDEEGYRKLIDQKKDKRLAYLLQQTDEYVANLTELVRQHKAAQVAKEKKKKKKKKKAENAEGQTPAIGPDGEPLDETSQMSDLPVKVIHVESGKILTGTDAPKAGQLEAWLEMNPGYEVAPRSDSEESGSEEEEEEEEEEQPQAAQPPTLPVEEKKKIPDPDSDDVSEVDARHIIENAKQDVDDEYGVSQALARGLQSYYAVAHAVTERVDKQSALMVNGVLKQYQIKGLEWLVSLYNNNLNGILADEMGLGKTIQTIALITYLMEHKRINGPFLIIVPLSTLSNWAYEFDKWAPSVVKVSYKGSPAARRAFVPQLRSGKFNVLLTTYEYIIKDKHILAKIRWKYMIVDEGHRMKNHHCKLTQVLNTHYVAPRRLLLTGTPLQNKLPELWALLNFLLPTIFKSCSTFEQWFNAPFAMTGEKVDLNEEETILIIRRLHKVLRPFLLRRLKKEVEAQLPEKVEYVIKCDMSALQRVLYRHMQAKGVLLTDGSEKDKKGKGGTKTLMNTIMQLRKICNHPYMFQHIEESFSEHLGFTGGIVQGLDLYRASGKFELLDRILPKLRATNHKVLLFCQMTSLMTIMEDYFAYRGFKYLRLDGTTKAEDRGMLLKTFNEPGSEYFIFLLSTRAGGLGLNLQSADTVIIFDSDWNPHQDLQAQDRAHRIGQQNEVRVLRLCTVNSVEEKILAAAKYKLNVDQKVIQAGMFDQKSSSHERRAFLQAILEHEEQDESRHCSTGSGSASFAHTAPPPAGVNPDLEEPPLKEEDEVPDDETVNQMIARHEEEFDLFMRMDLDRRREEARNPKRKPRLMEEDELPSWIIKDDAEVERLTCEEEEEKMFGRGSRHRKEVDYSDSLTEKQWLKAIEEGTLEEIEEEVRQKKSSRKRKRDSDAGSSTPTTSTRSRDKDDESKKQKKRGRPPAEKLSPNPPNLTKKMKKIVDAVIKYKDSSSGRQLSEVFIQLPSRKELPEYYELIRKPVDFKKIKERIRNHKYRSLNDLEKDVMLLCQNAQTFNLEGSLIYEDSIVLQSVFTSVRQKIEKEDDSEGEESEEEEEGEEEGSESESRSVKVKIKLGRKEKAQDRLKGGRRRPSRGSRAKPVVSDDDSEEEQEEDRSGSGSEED
Briefly: HiBiT-BRG1 cell-based degradation assay (Nano-Glo HiBiT Lytic Detection, 24 h). Conditions: HeLa cells expressing HiBit-BRG1 and LgBit; for DC50: read-out: BRG1 HiBit Degradation IC50; for Dmax: HeLa, top dose 30 μM, read-out: BRG1 HiBit Degradation Maximum measured. In short, it runs like this: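 Stable HeLa line expressing HiBiT-BRG1 and LgBiT, seeded at 5000 cells/well; luminescence read after lytic Nano-Glo HiBiT reagent and 10 min shaking at RT. % degradation normalised between DMSO (high control) and 2 μM reference BRM/BRG1 degrader (low control).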

T1 sequence (P51531 whole entry, the tested form may be a part): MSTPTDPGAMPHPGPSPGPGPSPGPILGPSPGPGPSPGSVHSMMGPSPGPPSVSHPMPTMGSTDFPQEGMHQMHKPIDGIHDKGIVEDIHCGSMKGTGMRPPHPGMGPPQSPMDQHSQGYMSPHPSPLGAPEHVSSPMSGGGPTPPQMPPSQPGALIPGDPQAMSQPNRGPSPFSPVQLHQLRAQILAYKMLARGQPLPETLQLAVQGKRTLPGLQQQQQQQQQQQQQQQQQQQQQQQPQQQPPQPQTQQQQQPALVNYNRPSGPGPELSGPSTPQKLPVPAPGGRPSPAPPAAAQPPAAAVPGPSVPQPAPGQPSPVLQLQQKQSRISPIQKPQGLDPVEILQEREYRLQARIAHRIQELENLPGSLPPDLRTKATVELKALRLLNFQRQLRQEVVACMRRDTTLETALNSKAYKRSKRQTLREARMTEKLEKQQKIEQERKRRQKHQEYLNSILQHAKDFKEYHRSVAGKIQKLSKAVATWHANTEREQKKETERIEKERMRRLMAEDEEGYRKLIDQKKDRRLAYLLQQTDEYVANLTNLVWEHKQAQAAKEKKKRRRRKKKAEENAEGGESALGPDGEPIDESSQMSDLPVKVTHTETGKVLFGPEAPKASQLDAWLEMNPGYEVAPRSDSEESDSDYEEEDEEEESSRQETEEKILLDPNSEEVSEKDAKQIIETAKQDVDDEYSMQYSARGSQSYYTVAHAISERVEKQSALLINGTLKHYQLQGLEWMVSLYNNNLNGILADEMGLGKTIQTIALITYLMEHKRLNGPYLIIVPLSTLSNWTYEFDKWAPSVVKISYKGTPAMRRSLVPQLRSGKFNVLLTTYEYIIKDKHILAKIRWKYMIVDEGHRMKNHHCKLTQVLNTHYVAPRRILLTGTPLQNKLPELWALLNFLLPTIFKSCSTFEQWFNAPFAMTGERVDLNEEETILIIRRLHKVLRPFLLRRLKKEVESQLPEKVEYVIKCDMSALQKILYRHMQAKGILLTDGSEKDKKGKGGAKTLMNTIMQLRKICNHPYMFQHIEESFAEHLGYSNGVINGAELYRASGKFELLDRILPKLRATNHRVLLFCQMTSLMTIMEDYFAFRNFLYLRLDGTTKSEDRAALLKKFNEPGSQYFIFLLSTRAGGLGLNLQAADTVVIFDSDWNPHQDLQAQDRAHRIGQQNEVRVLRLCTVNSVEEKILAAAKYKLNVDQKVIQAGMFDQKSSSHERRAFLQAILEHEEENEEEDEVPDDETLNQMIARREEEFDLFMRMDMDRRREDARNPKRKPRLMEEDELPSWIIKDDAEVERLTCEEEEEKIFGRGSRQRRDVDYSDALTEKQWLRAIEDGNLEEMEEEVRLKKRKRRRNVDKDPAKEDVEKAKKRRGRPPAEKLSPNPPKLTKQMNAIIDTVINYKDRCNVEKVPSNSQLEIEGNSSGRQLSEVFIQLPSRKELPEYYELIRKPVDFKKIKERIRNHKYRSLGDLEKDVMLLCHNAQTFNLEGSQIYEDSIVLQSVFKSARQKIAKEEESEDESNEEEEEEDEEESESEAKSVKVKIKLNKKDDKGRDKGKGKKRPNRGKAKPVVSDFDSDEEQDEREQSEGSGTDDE

As for `CS(=O)(=O)n1ccc(C(=O)N[C@@H](COCc2ccc(CNC(=O)CCOCCOCCOc3ccc4c(c3)C(=O)N(C3CCC(=O)NC3=O)C4=O)cc2)C(=O)Nc2nc(-c3ccccc3)cs2)c1` (stereo partly drawn) [Compound 217, 3-[2-(2-[[2-(2,6-dioxopiperidin-3-yl)-1,3-dioxoisoindol-5-yl]oxy]ethoxy)ethoxy]-N-[(4-[[(2S)-2-[(1-methanesulfonylpyrrol-3-yl)formamido]-2-[(4-phenyl-1,3-thiazol-2-yl)carbamoyl]ethoxy]methyl]phenyl)methyl]propanamide], at HiBit-BRM fusion protein, the DC50 was in the range of 0.1 to 1 µM; the “BRM HiBit Degradation Maximum measured” value was “B (‘B’ = Maximum degradation ≥50% and ≤75%)”. In addition, in assay [1], the DC50 lay in the range of 0.1 to 1 µM and the Dmax was 50 to 75%.
Consider `CS(=O)(=O)n1ccc(C(=O)N[C@@H](CCCCNC(=O)CCCCCCOc2cccc3c2C(=O)N(C2CCC(=O)NC2=O)C3=O)C(=O)Nc2nc(-c3ccccc3)cs2)c1` (stereo partly drawn) [Compound 290, 7-[[2-(2,6-dioxopiperidin-3-yl)-1,3-dioxoisoindol-4-yl]oxy]-N-[(5S)-5-[(1-methanesulfonylpyrrol-3-yl)formamido]-5-[(4-phenyl-1,3-thiazol-2-yl)carbamoyl]pentyl]heptanamide], for which, on HiBit-BRM fusion protein, the DC50 was over 10 µM and the “BRM HiBit Degradation Maximum measured” value is reported as “C (‘C’ = Maximum degradation <50%)”. Further, in assay [1], the DC50 is over 10 µM and the Dmax was under 50%.
Turning to `CS(=O)(=O)n1ccc(C(=O)NCC(=O)Nc2nc(-c3cccc(-c4cccc(CNC(=O)CCOCCOCCOc5cccc6c5C(=O)N(C5CCC(=O)NC5=O)C6=O)c4)c3)cs2)c1` (stereo not shown) [Compound 64, N-[2-[[4-[3-[3-[[3-[2-[2-[2-(2,6-dioxo-3-piperidyl)-1,3-dioxo-isoindolin-4-yl]oxyethoxy]ethoxy]propanoylamino]-methyl]phenyl]phenyl]thiazol-2-yl]amino]-2-oxo-ethyl]-1-methylsulfonyl-pyrrole-3-carboxamide], at HiBit-BRM fusion protein, the DC50 was over 10 µM and the “BRM HiBit Degradation Maximum measured” value is “C (‘C’ = Maximum degradation <50%)”. In assay [1], the DC50 is over 10 µM and the Dmax was under 50%.
For `Cc1ncsc1-c1ccc(CNC(=O)[C@@H]2C[C@@H](O)CN2C(=O)[C@@H](NC(=O)CCCCCC(=O)NCCOc2cc(-c3cccc(-c4csc(NC(=O)CNC(=O)c5ccn(S(C)(=O)=O)c5)n4)c3)ccn2)C(C)(C)C)cc1` [Compound 85, N1-((S)-1-((2S,4R)-4-hydroxy-2-((4-(4-methylthiazol-5-yl)benzyl)carbamoyl)pyrrolidin-1-yl)-3,3-dimethyl-1-oxobutan-2-yl)-N7-(2-((4-(3-(2-(2-(1-(methylsulfonyl)-1H-pyrrole-3-carboxamido)acetamido)thiazol-4-yl)phenyl)pyridin-2-yl)oxy)ethyl)heptanediamide], at HiBit-BRM fusion protein, the DC50 lay in the range of 0.1 to 1 µM and the “BRM HiBit Degradation Maximum measured” value is on record as “A (‘A’ = Maximum degradation >75%)”. Further, in assay [1], the DC50 was 0.1 to 1 µM and the Dmax was over 75%.
On to `Cc1ncsc1-c1ccc(CNC(=O)[C@@H]2C[C@@H](O)CN2C(=O)[C@@H](NC(=O)CCCCCCCCCCCCCC(=O)NCc2cccc(-c3cccc(-c4csc(NC(=O)CNC(=O)c5ccn(S(C)(=O)=O)c5)n4)c3)c2)C(C)(C)C)cc1` [Compound 126, N′-[(1S)-1-[(2S,4R)-4-hydroxy-2-[[4-(4-methylthiazol-5-yl)phenyl]methylcarbamoyl]pyrrolidine-1-carbonyl]-2,2-dimethyl-propyl]-N-[[3-[3-[2-[[2-[(1-methylsulfonylpyrrole-3-carbonyl)amino]acetyl]amino]thiazol-4-yl]phenyl]phenyl]methyl]pentadecanediamide], for which, on HiBit-BRM fusion protein, the DC50 lay in the range of 0.1 to 1 µM; the “BRM HiBit Degradation Maximum measured” value is “B (‘B’ = Maximum degradation ≥50% and ≤75%)”. In assay [1], the DC50 lay in the range of 0.1 to 1 µM and the Dmax lay within 50 to 75%.
With `CS(=O)(=O)n1ccc(C(=O)NCC(=O)Nc2nc(-c3cccc(-c4cccc(CNC(=O)CCOCCOCCNc5ccc6c(c5)C(=O)N(C5CCC(=O)NC5=O)C6=O)c4)c3)cs2)c1` (stereo not shown) [Compound 45, N-(2-((4-(3′-((3-(2-(2-((2-(2,6-dioxopiperidin-3-yl)-1,3-dioxoisoindolin-5-yl)amino)ethoxy)ethoxy)propanamido)-methyl)-[1,1′-biphenyl]-3-yl)thiazol-2-yl)amino)-2-oxoethyl)-1-(methylsulfonyl)-1H-pyrrole-3-carboxamide], on HiBit-BRM fusion protein, the DC50 is over 10 µM and the “BRM HiBit Degradation Maximum measured” value was “C (‘C’ = Maximum degradation <50%)”. In assay [1], the DC50 was over 10 µM and the Dmax is under 50%.
For the compound `CN(CCNC(=O)COc1cccc2c1C(=O)N(C1CCC(=O)NC1=O)C2=O)CCNC(=O)c1ccc(COC[C@H](NC(=O)c2ccn(S(C)(=O)=O)c2)C(=O)Nc2nc(-c3ccccc3)cs2)cc1` (stereo partly shown) [Compound 175], on HiBit-BRM fusion protein, the DC50 was over 10 µM and the “BRM HiBit Degradation Maximum measured” value was “C (‘C’ = Maximum degradation <50%)”. Moreover, in assay [1], the DC50 was over 10 µM and the Dmax is under 50%.
In the case of `CS(=O)(=O)n1ccc(C(=O)N[C@@H](CCCCNC(=O)CCOCCOCCNc2ccc3c(c2)C(=O)N(C2CCC(=O)NC2=O)C3=O)C(=O)Nc2nc(-c3ccccc3)cs2)c1` (stereo partly drawn) [Compound 292, (2S)-6-[3-[2-(2-[[2-(2,6-dioxopiperidin-3-yl)-1,3-dioxoisoindol-5-yl]amino]ethoxy)ethoxy]propanamido]-2-[(1-methanesulfonylpyrrol-3-yl)formamido]-N-(4-phenyl-1,3-thiazol-2-yl)hexanamide], at HiBit-BRM fusion protein, the DC50 was over 10 µM and the “BRM HiBit Degradation Maximum measured” value is reported as “C (‘C’ = Maximum degradation <50%)”. Besides, in assay [1], the DC50 is over 10 µM and the Dmax is under 50%.
Regarding `Cc1c(C(=O)NCC(=O)Nc2nc(-c3cccc(-c4ccnc(N(C)CC(=O)N5CCC(C6CCN(C(=O)COc7cccc8c7C(=O)N(C7CCC(=O)NC7=O)C8=O)CC6)CC5)c4)c3)cs2)cn(S(C)(=O)=O)c1C` (stereo not shown) [Compound 123, N-[2-[[4-[3-[2-[[2-[4-[1-[2-[2-(2,6-dioxo-3-piperidyl)-1,3-dioxo-isoindolin-4-yl]oxyacetyl]-4-piperidyl]-1-piperidyl]-2-oxo-ethyl]-methyl-amino]-4-pyridyl]phenyl]thiazol-2-yl]amino]-2-oxo-ethyl]-4,5-dimethyl-1-methylsulfonyl-pyrrole-3-carboxamide], at HiBit-BRM fusion protein, the DC50 is over 10 µM and the “BRM HiBit Degradation Maximum measured” value is “C (‘C’ = Maximum degradation <50%)”. In addition, in assay [1], the DC50 is over 10 µM and the Dmax was under 50%.
`Cc1ncsc1-c1ccc(CNC(=O)[C@@H]2C[C@@H](O)CN2C(=O)[C@@H](NC(=O)C2CC3(CC(C(=O)NCc4cccc(-c5cccc(-c6csc(NC(=O)CNC(=O)c7ccn(S(C)(=O)=O)c7)n6)c5)c4)C3)C2)C(C)(C)C)cc1` (stereo partly drawn) [Compound 137, N2-[(2S)-1-[(2S,4R)-4-hydroxy-2-([[4-(4-methyl-1,3-thiazol-5-yl)phenyl]methyl]carbamoyl)pyrrolidin-1-yl]-3,3-dimethyl-1-oxobutan-2-yl]-N6-[[3′-(2-[2-[(1-methanesulfonylpyrrol-3-yl)formamido]acetamido]-1,3-thiazol-4-yl)-[1,1′-biphenyl]-3-yl]methyl]spiro[3.3]heptane-2,6-dicarboxamide]: at HiBit-BRM fusion protein, the DC50 was over 10 µM and the “BRM HiBit Degradation Maximum measured” value is listed as “C (‘C’ = Maximum degradation <50%)”. Also, in assay [1], the DC50 is over 10 µM and the Dmax was under 50%.
For the compound `CS(=O)(=O)n1ccc(C(=O)NCC(=O)Nc2nc(-c3cccc(-c4ccnc(C5(C(=O)N6CC(CCOc7cccc8c7C(=O)N(C7CCC(=O)NC7=O)C8=O)C6)CC5)c4)c3)cs2)c1` (stereo not shown) [Compound 136, N-[4-[3-(2-[1-[3-(2-[[2-(2,6-dioxopiperidin-3-yl)-1,3-dioxoisoindol-4-yl]oxy]ethyl)azetidine-1-carbonyl]cyclopropyl]pyridin-4-yl)phenyl]-1,3-thiazol-2-yl]-2-[(1-methanesulfonylpyrrol-3-yl)formamido]acetamide], at HiBit-BRM fusion protein, the DC50 was over 10 µM and the “BRM HiBit Degradation Maximum measured” value was “C (‘C’ = Maximum degradation <50%)”. For the same compound, in assay [1], the DC50 was over 10 µM and the Dmax is under 50%.
Regarding `Cc1cc(C(=O)NCC(=O)Nc2nc(-c3cccc(-c4ccnc(N(C)CC(=O)N5CCC(C6CCN(C(=O)COc7cccc8c7C(=O)N(C7CCC(=O)NC7=O)C8=O)CC6)CC5)c4)c3)cs2)cn1S(C)(=O)=O` (stereo not shown) [Compound 130, N-[2-[[4-[3-[2-[[2-[4-[1-[2-[2-(2,6-dioxo-3-piperidyl)-1,3-dioxo-isoindolin-4-yl]oxyacetyl]-4-piperidyl]-1-piperidyl]-2-oxo-ethyl]-methyl-amino]-4-pyridyl]phenyl]thiazol-2-yl]amino]-2-oxo-ethyl]-5-methyl-1-methylsulfonyl-pyrrole-3-carboxamide], at HiBit-BRM fusion protein, the DC50 is over 10 µM and the “BRM HiBit Degradation Maximum measured” value is given as “C (‘C’ = Maximum degradation <50%)”. Further, in assay [1], the DC50 was over 10 µM and the Dmax was under 50%.
With `Cc1c(C(=O)NCC(=O)Nc2nc(-c3cccc(-c4ccnc(N(C)CC(=O)NCCCCCCCCNC(=O)COc5cccc6c5C(=O)N(C5CCC(=O)NC5=O)C6=O)c4)c3)cs2)cn(S(C)(=O)=O)c1C` (stereo not shown) [Compound 41, N-[2-[[4-[3-[2-[[2-[8-[[2-[2-(2,6-dioxo-3-piperidyl)-1,3-dioxo-isoindolin-4-yl]oxyacetyl]amino]octylamino]-2-oxo-ethyl]-methyl-amino]-4-pyridyl]phenyl]thiazol-2-yl]amino]-2-oxo-ethyl]-4,5-dimethyl-1-methylsulfonyl-pyrrole-3-carboxamide], at HiBit-BRM fusion protein, the DC50 was over 10 µM and the “BRM HiBit Degradation Maximum measured” value is on record as “C (‘C’ = Maximum degradation <50%)”. In assay [1], the DC50 is over 10 µM and the Dmax is under 50%.

Source of the values: patent US12662479B2 (Foghorn Therapeutics Inc., priority 2020, dated 2026).
